In patent publication US10471076B2, “Compositions and methods to treat vision disorders” (YouHealth Biotech, Limited, priority 2014, dated 2019):
Values joined by “and” are separate entries in the source; they are usually repeats but may differ in a detail not shown here. Equal values may be shown once. “Also recorded” adds a separate entry of the source.

Experiments:
[1] = system: cataract-causing mutant crystallins; assay: Western blot of soluble and insoluble fractions of cell lysates; format: cell-based; settings: human lens progenitor cells, n=3, P<0.001
From the text: The cells were harvested and lysed. Supernatant and insoluble fractions were separated by centrifugation and analyzed by western blot analysis. LSS and crystallin fusion proteins were identified by antibodies against Flag and GFP tags, respectively. The lanosterol-treated group is highlighted by red boxes. Cells treated with 1% DMSO were used as a control. β-Actin was used as an internal protein loading control of total cell lysates (TCL). S, supernatant; P, insoluble fraction. […] Crystallin aggregates were formed by incubating 5 mg ml^−1 protein solution at 60° C. for 2 h (α-crystallins) or 37° C. for 48 h (β- and γ-crystallins) in the presence of 1 M guanidine chloride. The preformed aggregates were re-suspended in PBS at a final protein concentration of 0.2 mg ml^−1 and were treated with 500 μM sterols in 500 μM DPPC liposome and incubated at 37° C. for 24 h. […] Aggregates treated with 500 μM DPPC liposome only were used as the controls.
LC-MS analysis. […] The derived samples were analyzed by an Agilent 1290/6460 triple quadrupole LC/MS using an alternative Atmospheric Pressure Chemical Ionisation (APCI) source. […] Quantification of the western blot bands was achieved using the software GELPRO (Media Cybernetics). The presented quantitative data were calculated from three independent experiments.

[2] = system: amyloid-like fibrils of crystallin proteins; assay: Re-dissolution of pre-formed amyloid-like fibrils (ThT fluorescence, TEM, turbidity); format: biochemical, human; settings: 0.2 mg/ml aggregates; 500 μM sterols in 500 μM DPPC liposome (b129 prints 500 mM), 37° C., 24 h; TEM and ThT fluorescence; concentration-dependent
Procedure: Crystallin aggregates were formed by incubating 5 mg ml^−1 protein solution at 60° C. for 2 h (α-crystallins) or 37° C. for 48 h (β- and γ-crystallins) in the presence of 1 M guanidine chloride. The preformed aggregates were re-suspended in PBS at a final protein concentration of 0.2 mg ml^−1 and were treated with 500 μM sterols in 500 μM DPPC liposome and incubated at 37° C. for 24 h. Aggregates treated with 500 μM DPPC liposome only were used as the controls. […] Aggregates treated with 500 μM DPPC liposome only were used as the controls.
All protein samples were prepared in 20 mM PBS buffer containing 150 mM NaCl, 1 mM EDTA and 1 mM DTT.
Protein aggregation and aggregate dissociation. The aggregates of the wild-type and mutated αA- and αB-crystallin proteins were obtained by heating the protein solutions containing 1 M guanidine chloride (ultrapure, Sigma-Aldrich) at a con-centration of 5 mg/ml at 60° C. for 2 h. The aggregates of the wild-type and mutated b- and c-crystallins were prepared by heating the protein solutions containing 1 M guanidine chloride at 37° C. for 48 h. The formation of aggregates was confirmed by ThT fluorescence, turbidity (absorbance at 400 nm) and transmission electron microscopy (TEM) observations. […] After 24 h of treatment, the protein solutions were used for ThT fluorescence, turbidity and negatively stained TEM observations. […]

dog eyes with cataracts = assay: Treatment of cataractous lenses in dogs in vivo; parameters: key to cataract grade before treatment, treatment group / cataract grade after treatment, treatment group: Grade 0: absence of opacification (no cataract); Grade 1: a slight degree of opacification (incipient stage); Grade 2: presence of diffuse opacification involving almost the entire lens (immature stage); Grade 3: presence of extensive, thick opacification involving the entire lens (mature stage)
Procedure: Preparation of drug-loaded nanoparticles. Lanosterol was loaded into a lipid-polymer hybrid nanoparticle through an adapted nanoprecipitation method^34. In brief, the desired concentration of lanosterol was mixed with polycaprolactone (PCL) polymer dissolved in acetonitrile. Lecithin and 1,2-distearoyl-sn-glycero-3-phosphoethanolamine-N-carboxy(polyethylene glycol) 2000 (DSPE-PEG-COOH) were dissolved in a 4% ethanol aqueous solution at 20% of the PCL polymer weight and heated above 60° C. The lanosterol/PCL solution was then added into the preheated lipid solution under gentle stirring followed by rigorous vortexing for 3 min. The mixture solution was then stirred for 2 h to allow the nanoparticles to form and the acetonitrile to evaporate. Next, the nanoparticle solution was washed three times using an Amicon Ultra-4 centrifugal filter (Millipore) with a molecular weight cut-off of 10 kDa to remove the remaining organic solvent and free molecules. The resulting nanoparticles were then re-suspended in PBS buffer for sub-sequent use. The size, size distribution, and surface zeta potential of the drug-loaded nanoparticles were characterized by dynamic light scattering. The loading yield of lanosterol was quantified by high-performance liquid chromatography.
Treatment of cataractous lenses in dogs. To assess the effect of lanosterol treatment on cataracts in live animals, dogs were pre-medicated with intramuscular injections of acepromaxine and butorphanol. After 20 min, induction of anaesthesia was performed by application of intravenous propofol. Dogs were then immediately intubated and maintained on oxygen and 2% isoflurane at […]. Lanosterol (100 mg)-loaded nanoparticles were initially injected into the vitreous cavity in the test eye using a 28-gauge needle, and then were given every 3 days for the duration of the experiment. Treatment eyes or sham eyes were randomized. […] Degree of cataract severity was assessed by a blinded examiner and scored based on canine cataract stage, shown below^35. Improvements in lens clarity and transparency were quantified. […]

CC(C)=CCC[C@@H](C)[C@H]1CC[C@@]2(C)C3=C(CC[C@]12C)[C@@]1(C)CC[C@H](O)C(C)(C)[C@@H]1CC3 [lanosterol, 3β-Hydroxy-8,24-lanostadiene; 8,24-Lanostadien-3β-ol]
amount of mutant crystallins in the soluble fractions of cell lysates [1]: increased the amounts of mutant crystallins in the soluble fractions; also recorded: increased cataract-causing mutant crystallins in soluble fractions | re-dissolution of aggregated crystallin proteins from amyloid-like fibrils [2]: successfully re-dissolved the aggregated crystallin proteins | cataract grade before treatment, treatment group (dog eyes with cataracts; dog study eye, baseline, n=7): 1 and 2 and 3 | cataract grade after treatment, treatment group (dog eyes with cataracts; dog study eye, intravitreal lanosterol (100 mg)-loaded nanoparticles every 3 days plus 25 mM lanosterol eye drops three times daily, 6 weeks, n=7): 0 and 1 | cataract severity / lens clarity (dog eyes with cataracts; dogs in vivo, 6 weeks of lanosterol, P<0.009, Wilcoxon Test): significantly reduced cataract severity and increased lens clarity
